In patent publication US9278943B2, “Methods of using as analgesics 1-benzyl-1-hydroxy-2, 3-diamino-propyl amines, 3-benzyl-3-hydroxy-2-amino-propionic acid amides and related compounds” (Exonhit Therapeutics SA, priority 2005, dated 2016):
Counter-ions that a name gives are not always drawn. Like-named read-outs stand apart in the source and are kept apart here.

Assays:
[1] = system: tactile allodynia in the rat Chung model (L5/L6 spinal nerve ligation); assay: Chung model: reversal of tactile allodynia (von Frey hairs) after spinal nerve ligation; format: in vivo; conditions: read-out: Peak % Pain reversal: time post dose; for inhibition in vivo at 0.3 mg/kg: 300 μg/kg IP; for inhibition in vivo at 1 mg/kg: 1000 μg/kg IP
From the text: An art-accepted model or assay for measuring an analgesic effect of a compound in chronic pain (in particular peripheral neuropathy) is the model known as Kim and Chung 1992, Pain […], pp 355-363 (Chung model). This model involves the surgical ligation of the L5 (and optionally the L6) spinal nerves on one side in experimental animals. Rats recovering from the surgery gain weight and display a level of general activity similar to that of normal rats. However, these rats develop abnormalities of the foot, wherein the hindpaw is moderately everted and the toes are held together. More importantly, the hindpaw on the side affected by the surgery appears to become sensitive to low-threshold mechanical stimuli and will perceive pain instead of the faint sensation of touch. This sensitivity to normally non-painful touch, called “tactile allodynia”, develops within the first week after surgery and lasts for at least two months. The allodynia response includes lifting the affected hindpaw to escape from the stimulus, licking the paw and holding it in the air for many seconds. None of these responses is normally seen in the control group.
To produce the tactile allodynia, rats are anesthetized before surgery. The surgical site is shaved and prepared either with betadine or Novacaine. Incision is made from the thoracic vertebra Xlll down toward the sacrum. Muscle tissue is separated from the spinal vertebra (left side) at the L4-S2 levels. The L6 vertebra is located and the transverse process is carefully removed with a small rongeur to expose the L4-L6 spinal nerves. The L5 and L6 spinal nerves are isolated and tightly ligated with 6-0 silk thread. The same procedure is done on the right side as a control, except no ligation of the spinal nerves is performed.
After a complete hemostasis is confirmed, the wounds are sutured. A small amount of antibiotic ointment is applied to the incised area, and the rat is transferred to the recovery plastic cage under a regulated heat-temperature lamp.
On the day of the experiment, at least seven days after the surgery, typically six rats per test group are administered the test drugs by intraperitoneal (i.p.) injection or oral gavage (p.o.). For i.p. administration, the compounds are formulated in H2O and given in a volume of 1 ml/kg body weight by injecting into the intraperitoneal cavity. For p.o. administration, the compounds are formulated in H2O and given in a volume of 1 ml/kg body weight using an 18-gauge, 3 inch gavage needle that is slowly inserted through the esophagus into the stomach.
Tactile allodynia is assessed via von Frey hairs, which are a series of fine hairs with incremental differences in stiffness. Rats are placed in a plastic cage with a wire mesh bottom and allowed to acclimate for approximately 30 minutes. To establish the pre-drug baseline, the von Frey hairs are applied perpendicularly through the mesh to the mid-plantar region of the rats' hindpaw with sufficient force to cause slight buckling and held for 6-8 seconds. The applied force has been calculated to range from 0.41 to 15.1 grams. If the paw is sharply withdrawn, it is considered a positive response. A normal animal will not respond to stimuli in this range, but a surgically ligated paw will be withdrawn in response to a 1-2 gram hair. The 50% paw withdrawal threshold is determined using the method of Dixon, W. J., Ann. Rev. Pharmacol. Toxicol. 20:441-462 (1980) hereby incorporated by reference. Tactile allodynia is measured prior to and 15, 30, and 60 minutes after drug administration. The post-drug threshold is compared to the pre-drug threshold and the percent reversal of tactile sensitivity is calculated based on a normal threshold of 15.1 grams.
Table 1 below indicates the degree of pain reversal obtained in the Chung model with exemplary compounds used in accordance with the invention. […]

GlcCer synthase (GCS) = biological target: T1, GlcCer synthase (GCS) (Homo sapiens, UniProt Q16739); conditions: cited from earlier work
T1 sequence (Q16739 1-394): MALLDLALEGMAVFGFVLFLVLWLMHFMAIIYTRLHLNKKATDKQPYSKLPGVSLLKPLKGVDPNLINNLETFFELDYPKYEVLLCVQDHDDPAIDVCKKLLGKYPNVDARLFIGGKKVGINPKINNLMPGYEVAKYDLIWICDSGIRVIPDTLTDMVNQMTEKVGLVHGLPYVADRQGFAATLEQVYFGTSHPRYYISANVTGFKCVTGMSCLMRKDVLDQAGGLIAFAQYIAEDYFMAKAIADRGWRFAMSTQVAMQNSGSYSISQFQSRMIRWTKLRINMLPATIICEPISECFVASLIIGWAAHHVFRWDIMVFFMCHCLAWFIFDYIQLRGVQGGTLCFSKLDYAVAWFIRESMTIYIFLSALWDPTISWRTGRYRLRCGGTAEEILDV

synaptic function = conditions: cited from earlier work
[2] = system: glycosphingolipid biosynthesis; conditions: via inhibition of glycosphingolipid biosynthesis; cited from earlier work
[3] = system: transient forebrain ischemia in rats; conditions: treatment after transient forebrain ischemia in rats; 8-arm maze task; cited from earlier work
[4] = 1 h, 30 μg/kg IP, peak at 60 min post dose

Structure (SMILES): N[C@@H](CN1CCOCC1)[C@@H](O)c1ccccc1 (as salt: hydrochloride) [Compound 2, L-threo-2-Amino-3-morpholino-1-phenylpropan-1-ol dihydrochloride]
- melting point: 166.4 to 170.9 °C

Structure (SMILES): N[C@@H](CN1CCCC1)[C@@H](O)c1ccc2c(c1)OCCO2 (racemic) [Compound 6, DL-threo-2-Amino-1-(2,3-dihydrobenzo[b][1,4]dioxin-6-yl)-3-(pyrrolidin-1-yl)propan-1-ol]
- inhibition in vivo at 0.03 mg/kg [1, 4]: 92%

Structure (SMILES): CCCCCCCCCC(=O)N[C@@H](CN1CCCC1)[C@@H](O)c1ccc2c(c1)OCCO2 (racemic) [Compound 7, N-(DL-threo-1-(2,3-dihydrobenzol[b][1,4]dioxin-6-yl)-1-hydroxy-3-(pyrrolidin-1-yl)propan-2-yl)decanamide]
- inhibition in vivo at 0.001 mg/kg ([1]; 0.5 h, 1 μg/kg IP, peak at 30 min post dose): 26%

Structure (SMILES): COc1ccc([C@H](O)[C@@H](N)CN2CCCC2)cc1 (racemic) [Compound 9, DL-threo-2-Amino-1-(4-methoxyphenyl)-3-(pyrrolidin-1-yl)propan-1-ol]
- inhibition in vivo at 0.03 mg/kg [1, 4]: 88%

Structure (SMILES): N[C@@H](C(=O)N1CCCC1)[C@@H](O)c1ccc(Cl)c(Cl)c1 (racemic) [Compound 15, DL-threo-2-Amino-3-(3,4-dichlorophenyl)-3-hydroxy-1-(pyrrolidin-1-yl)propan-1-one hydrochloride]
- inhibition in vivo at 0.3 mg/kg ([1]; 1 h, peak at 60 min post dose): 42%

Structure (SMILES): N[C@@H](C(=O)N1CCCC1)[C@@H](O)c1ccccc1 (racemic) [Compound 16, DL-threo-2-Amino-3-hydroxy-3-phenyl-1-(pyrrolidin-1-yl)propan-1-one hydrochloride]
- inhibition in vivo at 0.3 mg/kg ([1]; 1 h, peak at 60 min post dose): 93%

Structure (SMILES): Cc1ccc([C@H](O)[C@@H](N)C(=O)N2CCCC2)cc1 (racemic) [Compound 17, DL-threo-2-Amino-3-hydroxy-1-(pyrrolidin-1-yl)-3-p-tolylpropan-1-one hydrochloride]
- inhibition in vivo at 0.3 mg/kg ([1]; 1 h, peak at 60 min post dose): 100%

Structure (SMILES): CCCCCCCCCC(=O)N[C@@H](CN1CCOCC1)[C@H](O)c1ccccc1 (racemic) [DL-erythro-PDMP, 1-Phenyl-2-decanoylamino-3-morpholino-1-propanol, reference compound]
- inhibition in vivo at 1 mg/kg ([1]; 0.5 h, peak at 30 min post dose): 68%

Structure (SMILES): N[C@@H](CN1CCOCC1)[C@@H](O)c1ccccc1 [Compound 2, L-threo-2-Amino-3-morpholino-1-phenylpropan-1-ol dihydrochloride]
- inhibition in vivo at 0.1 mg/kg ([1]; 1 h, 100 μg/kg IP, peak at 60 min post dose): 91%

Structure (SMILES): C[C@H](N[C@H](CN1CCOCC1)[C@H](O)c1ccccc1)c1ccccc1 [Compound 5, D-threo-2-((S)-1-Phenylethylamino)-3-morpholino-1-phenylpropan-1-ol dihydrochloride]
- inhibition in vivo at 0.3 mg/kg ([1]; 1 h, peak at 60 min post dose): 85%

Structure (SMILES): CCCCCCCCCCCCCCCC(=O)N[C@H](CN1CCCC1)[C@H](O)c1ccc(O)cc1 [D-threo-4′-hydroxy-P4]
- inhibition of GCS (GlcCer synthase (GCS)): one of the most potent inhibitor of GCS

Structure (SMILES): CCCCCCCCCC(=O)N[C@H](CN1CCOCC1)[C@H](O)c1ccccc1 [D-threo-PDMP, 1-Phenyl-2-decanoylamino-3-morpholino-1-propanol]
- inhibition in vivo at 1 mg/kg ([1]; 1 h, peak at 60 min post dose): 77%
- effect on synaptic function (synaptic function): suppresses synaptic function
- antitumor activity [2]: has antitumor activity

Structure (SMILES): CCCCCCCCCC(=O)N[C@@H](CN1CCOCC1)[C@@H](O)c1ccccc1 [L-threo-PDMP, (1S,2S)-1-phenyl-2-decanoylamino-3-morpholino-1-propanol, reference compound]
- inhibition in vivo at 0.03 mg/kg ([1]; 0.5 h, 30 μg/kg PO, peak at 30 min post dose): 100%
- deficit of a well learned spatial memory [3]: ameliorated the deficit

Structure (SMILES): O=C(N[C@H](CN1CCCC1)[C@H](O)c1ccccc1)OCc1ccccc1 [PBPP, D-threo-1-phenyl-2-benzyloxycarbonylamino-3-pyrrolidino-1-propanol]
- inhibition of GCS (GlcCer synthase (GCS)): potent GCS inhibitor
